Assay results taken from patent US20250109140A1, “5-[5-(PIPERIDIN-4-YL)THIENO[3,2-C]PYRAZOL-2-YL]INDAZOLE DERIVATIVES AND RELATED COMPOUNDS AS MODULATORS FOR SPLICING NUCLEIC ACIDS AND FOR THE TREATMENT OF PROLIFERATIVE DISEASES” (REMIX THERAPUTICS INC., priority 2022, published 2025).
Where two headings read alike, the source gives them in different places.

What was measured:
HiBiT-tagged HTT protein = test: HiBiT protein abundance assay, HTT (K562 HiBiT knock-in cells); format: cell-based, human; details: 24 hours treatment
Protocol: (§1) Compounds described herein were used to screen for effects on quantitative protein abundance using a HiBit assay system (Promega). Quantitative protein abundance was determined by measuring the protein levels of HiBit-tagged protein targets expressed in cell culture via luminescence using the Nano-Glo HiBiT Lytic Detection System, which uses a split complementation assay format to reconstitute NanoBiT enzyme to generate a luminescent signal. A protein abundance assay was developed such that endogenous protein targets could be modified with the HiBiT peptide tag and their abundance could be assessed after compound treatment. Briefly, K562 cell lines containing a HiBiT-modification were treated with various compounds described herein (e.g., compounds of Formulas (I), or (II)). After treatment for 24 hours, the protein abundance of a specific target was determined by measuring luminescence.
(§2) Cells were maintained in IMDM with 10% FBS. Before the assay, cells were diluted with […] growth media (IMDM+[…] media) and were seeded in a 384-well plate at a density of 10000 cells/well (for each cell line listed in Table 6). Each compound was prepared as a 10-point 3-fold serial dilution in DMSO with the top dose at a final concentration of […] in the well. Unmodified K562 cells were added at the previously specified density with DMSO to serve as an assay baseline and positive control (PC) and DMSO only with the respective modified cell lines was added to the negative control (NC) columns. Final DMSO concentration was kept at or below 0.25%. Treated cell plates were placed in an incubator at 37° C. with […] for 24 hours. After 24 hours, 25 μL of Complete HiflitLytic reagent was added to each well at room temperature (e.g. one plate requiring 10 mL Lytic Buffer, 100 μL LgBiT Protein, 200 μL Lytic Substrate), shaken for 5 minutes at 600 RPM, then left to sit for 10 minutes for signal to stabilize before reading on a Spark Cyto plate reader (Tecan) with a 500 ms measurement time.
(§3) To determine compound effects on protein abundance of each target in Table 6, the percent response for each respective cell line was calculated at each compound concentration as follows:
(§4) For the normalized response at each concentration, a four-parameter logistical regression was fit to the data and the response was interpolated at the 50% value to determine a concentration for protein abundance at 50% (IC50) the untreated control.

MYB mRNA = test: Splicing RT-qPCR assay, MYB canonical (CJ) and alternative (AJ) junction mRNA; format: cell-based; details: Homo sapiens; for EC50: AC50 = 50% response in AJ mRNA increase
Method in brief: (§5)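 A673/K562; 11-pt 3-fold dil., top 10 uM final, ≤0.25% DMSO; 24 h, 37 °C, 5% CO2. Lysis, then RT-qPCR of CJ/AJ isoforms, ≥duplicate. ΔCt vs housekeeper (GAPDH/GUSB/PPIA), ΔΔCt vs DMSO, RQ = 2^(−ΔΔCt), expressed as % response.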

[1] = tested on: K562 (human chronic myelogenous leukemia) cells; test: Cell viability, Cell Titer Glo 2.0 assay, K562 cells; format: cell-based; details: 72 hours
Protocol: Compounds described herein were screened for toxicity in K562 (human chronic myelogenous leukemia) and SH-SY5Y (human neuroblastoma) cells using a Cell Titer Glo 2.0 assay.
Cells were plated at 500 cells/well (K562 cells) in 45 μL of IMDM supplemented with 10% FBS in a 384-well opaque plate. Wells containing only medium were used as a blank control. Test compounds (e.g., compounds of Formula (I), (III), (IV), (V), or (VI)) were first serially diluted in DMSO then diluted 1:100 with IMDM+10% FBS. The final concentration of DMSO was 0.1% in each well. The cells were incubated for 72 hours at 37° C. and 5% CO2 before assaying with Cell Titer Glo 2.0 reagent.

HTT mRNA = test: Splicing RT-qPCR assay, HTT canonical (CJ) and alternative (AJ) junction mRNA; format: cell-based; details: Homo sapiens; for EC50: AC50 = 50% response in AJ mRNA increase
Method in brief: as §5

Target C mRNA = test: Splicing RT-qPCR gene panel, Target C canonical junction (CJ) mRNA; format: cell-based; details: Homo sapiens; Table 8; larger gene panel, decrease in CJ mRNA levels
Method in brief: as §5

SMN2 mRNA = test: Splicing RT-qPCR gene panel, SMN2 canonical junction (CJ) mRNA; format: cell-based; details: Homo sapiens; Table 8; larger gene panel, decrease in CJ mRNA levels
Method in brief: as §5

HiBiT-tagged MYB protein = test: HiBiT protein abundance assay, MYB (K562 HiBiT knock-in cells); format: cell-based, human; details: 24 hours treatment
Protocol: as §1, §2, §3, §4

Target C = test: HiBiT protein abundance assay, Target C (K562 HiBiT knock-in cells); format: cell-based, human; details: 24 hours treatment
Protocol: • Promega Nano-Glo HiBiT Lytic Detection System (cat #N3030) • Corning 384-well TC-treated microplates (cat #3570) • Synthego Engineered Cells Knock-In Clones
as §2, §3, §4

[2] = Table 7, RT-qPCR, A673 or K562 cells, 24 hours treatment
[3] = Table 7, IC50 = 50% response in CJ mRNA decrease, RT-qPCR, A673 or K562 cells, 24 hours treatment, read-out: MYB CJ
[4] = Table 8, larger gene panel, decrease in CJ mRNA levels, read-out: MYB CJ IC50
[5] = Table 7, IC50 = 50% response in CJ mRNA decrease, RT-qPCR, A673 or K562 cells, 24 hours treatment, read-out: HTT CJ
[6] = Table 8, larger gene panel, decrease in CJ mRNA levels, read-out: HTT CJ IC50

IC50 (HiBiT-tagged HTT protein) [µM]	EC50 (MYB mRNA; [2]) [µM]	IC50 (MYB mRNA; [3]) [µM]	IC50 (MYB mRNA; [4]) [µM]	IC50 [1] [µM]	EC50 (HTT mRNA; [2]) [µM]	IC50 (HTT mRNA; [5]) [µM]	IC50 (HTT mRNA; [6]) [µM]	IC50 (Target C mRNA) [µM]	IC50 (SMN2 mRNA) [µM]	IC50 (HiBiT-tagged MYB protein) [µM]	IC50 (Target C) [µM]	SMILES
0.1 to 1	1 to 10	1 to 10	1 to 10	1 to 10	0.1 to 1	0.1 to 1	0.1 to 1	1 to 10	0.1 to 1	0.1 to 1	0.1 to 1	Cc1cn2cc(-n3cc4sc(C5CCNCC5)cc4n3)cc(F)c2n1 [Compound 166, 4-(2-{8-fluoro-2-methylimidazo[1,2-a]pyridin-6-yl}thieno[3,2-c]pyrazol-5-yl)piperidine]
	> 10	> 10	> 10	1 to 10	1 to 10	1 to 10	1 to 10	> 10	1 to 10			Cc1cn2cc(-n3cc4sc(C5CCNCC5)cc4n3)cc(C)c2n1 [Compound 173]
	0.1 to 1	0.1 to 1	0.1 to 1		0.1 to 1	0.1 to 1	0.1 to 1	0.1 to 1	< 0.1			CN(C)C1CCN(c2cc3sc(-c4cc(F)c5nn(C)cc5c4)nc3s2)CC1 [Compound 154, 1-[2-(7-fluoro-2-methylindazol-5-yl)thieno[2,3-d][1,3]thiazol-5-yl]-N,N-dimethylpiperidin-4-amine]
	< 0.1	< 0.1	< 0.1		< 0.1	< 0.1	< 0.1	< 0.1	< 0.1			C[C@@H]1C[C@@H](c2cc3sc(-c4cc(F)c5nn(C)cc5c4)nc3s2)CCN1 (single isomer, unassigned) [Compound 193, 7-fluoro-2-methyl-5-[5-(2-methylpiperidin-4-yl)thieno[2,3-d][1,3]thiazol-2-yl]indazole]
	> 10	> 10	> 10		> 10	> 10	> 10	1 to 10	1 to 10			Cn1cc2cc(-c3nc4sc(N5CCC56CCCNC6)cc4s3)cc(F)c2n1 (stereo not shown) [Compound 202, 1-[2-(7-fluoro-2-methylindazol-5-yl)thieno[2,3-d][1,3]thiazol-5-yl]-1,6-diazaspiro[3.5]nonane]
	0.1 to 1	0.1 to 1	0.1 to 1		< 0.1	< 0.1	< 0.1	0.1 to 1	< 0.1			Cc1cn2nc(N3Cc4sc(C5CCNCC5)cc4C3=O)cc(C)c2n1 [Compound 1127]
	< 0.1	< 0.1	< 0.1		< 0.1	< 0.1	< 0.1	< 0.1	< 0.1			Cc1cn2cc(-c3nc4sc(C5CCNCC5)cc4s3)cc(Cl)c2n1 [Compound 139]

The remaining lines, values behind:

SMILES	IC50 (HiBiT-tagged HTT protein) [µM]	EC50 (MYB mRNA; [2]) [µM]	IC50 (MYB mRNA; [3]) [µM]	IC50 (MYB mRNA; [4]) [µM]	IC50 [1] [µM]	EC50 (HTT mRNA; [2]) [µM]	IC50 (HTT mRNA; [5]) [µM]	IC50 (HTT mRNA; [6]) [µM]	IC50 (Target C mRNA) [µM]	IC50 (SMN2 mRNA) [µM]	IC50 (HiBiT-tagged MYB protein) [µM]	IC50 (Target C) [µM]
Cc1cn2nc(-n3cc4cc(C5CCNCC5)sc4n3)cc(C)c2n1 [Compound 110, 4-(2-[2,8-dimethylimidazo[1,2-b]pyridazin-6-yl]thieno[2,3-c]pyrazol-5-yl) piperidine]	1 to 10	0.1 to 1	1 to 10	0.1 to 1	1 to 10	0.1 to 1	0.1 to 1	0.1 to 1		< 0.1	1 to 10	1 to 10
Cn1cc2cc(-c3nc4sc(N5CCNCC5)cc4s3)cc(F)c2n1 [Compound 134, 7-fluoro-2-methyl-5-[5-(piperazin-1-yl)thieno[2,3-d][1,3]thiazol-2-yl]indazole]		0.1 to 1	0.1 to 1	0.1 to 1		< 0.1	0.1 to 1	< 0.1	0.1 to 1	< 0.1		
Cc1nc2c(F)cc(-c3nc4sc(C5CCNCC5)cc4s3)cc2o1 [Compound 132, 4-fluoro-2-methyl-6-[5-(piperidin-4-yl)thieno[2,3-d][1,3]thiazol-2-yl]-1,3-benzoxazole]		0.1 to 1	0.1 to 1	0.1 to 1		< 0.1	0.1 to 1	< 0.1	0.1 to 1	0.1 to 1		
CN1CCC(N(C)c2cc3sc(-c4cc(F)c5nn(C)cc5c4)nc3s2)CC1 [Compound 145, N-[2-(7-fluoro-2-methylindazol-5-yl)thieno[2,3-d][1,3]thiazol-5-yl]-N,1-dimethylpiperidin-4-amine]		1 to 10	1 to 10	1 to 10		> 10	> 10	> 10	> 10	0.1 to 1		
Cn1cc2cc(-c3cc4nn(C5CCNCC5)cc4s3)cc(F)c2n1 [Compound 121, 7-fluoro-2-methyl-5-[2-(piperidin-4-yl)thieno[3,2-c]pyrazol-5-yl]indazole]	< 0.1	0.1 to 1	0.1 to 1	0.1 to 1		0.1 to 1	< 0.1	0.1 to 1	< 0.1	< 0.1	0.1 to 1	< 0.1
CN(c1cc2sc(-c3ccc(-c4cn[nH]c4)cc3O)nc2s1)[C@@H]1C[C@H]2CC[C@@H](C1)N2 [Compound 191, 2-{5-[(1R,3R,5S)-8-azabicyclo[3.2.1]octan-3-yl(methyl)amino]thieno[2,3-d][1,3]-thiazol-2-yl}-5-(1H-pyrazol-4-yl)phenol]		> 10	> 10	> 10		> 10	> 10	> 10	> 10	> 10		
Cc1cn2nc(-c3cc4sc(C5CCNCC5)nc4s3)cc(C)c2n1 [Compound 125, 4-(5-[2,8-dimethylimidazo[1,2-b]pyridazin-6-yl]thieno [2,3-d][1,3]thiazol-2-yl) piperidine]		0.1 to 1	1 to 10	0.1 to 1		0.1 to 1	0.1 to 1	0.1 to 1	1 to 10	0.1 to 1		
CC1CN(c2cc3sc(-c4cc(F)c5nn(C)cc5c4)nc3s2)CCN1 (stereo not shown) [Compound 135, 7-fluoro-2-methyl-5-[5-(3-methylpiperazin-1-yl)thieno[2,3-d][1,3]thiazol-2-yl]indazole]		0.1 to 1	0.1 to 1	0.1 to 1		0.1 to 1	0.1 to 1	0.1 to 1	0.1 to 1	< 0.1		
Cn1cc2cc(-c3nc4sc(C5CCNCC5)cn4n3)cc(F)c2n1 [Compound 103, 7-fluoro-2-methyl-5-[5-(piperidin-4-yl)-[1,2,4]triazolo[3,2-b][1,3]thiazol-2-yl]indazole]		> 10	> 10	> 10		> 10	> 10	> 10	> 10	> 10		
